Data taken from patent publication US20030190396A1, “Methods and compositions for altering the sweetness delivery profile of sucralose” (priority 2002, published 2003).
Where a SMILES comes first, the peptide text is derived from it.

What was measured:
[1] = Subcutaneous water retention in bodybuilders on a pre-competition diet (caliper test and visual inspection, Example 6); format: in vivo, human; settings: ten bodybuilders; 12-week pre-competition diet with this sweetener only; caliper test and muscle definition score twice weekly
Procedure: This study was defined to determine whether the ingestion of sucralose results in reduced subcutaneous water retention compared to the water retention resulting from the ingestion of aspartame. Ten bodybuilders on a pre-competition diet were closely monitored. Prior to the pre-competition diet, the body fat and the weight of the ten bodybuilders were measured. Prior to this study, the participants in their normal diet refrained for one week from any products containing either sucralose or aspartame.
In the first phase of the study, during the 12-week pre-competition diet, the body builders consumed goods and liquids that were sweetened with aspartame only. Two methods for assessing subcutaneous water retention were used. […] As a second test, the subjective visual inspection was used, where the abdomen and overall body definition were visually inspected and photographed. As with the objective test, the subjects' muscle definition-value was determined twice weekly. A scale of 1 to 10 for muscle definition was used as an indicator for subcutaneous water retention, with a score of 10 indicating excellent muscle definition and 1 indicating poor definition. […]

[2] = Roberts, J. Appl. Nutr. 1988; cited from earlier work
[3] = test system: rats; settings: cited from earlier work
[4] = in vivo; cited from earlier work

| SMILES | subcutaneous water retention [1] | water retention within the body [2] | risk of causing cancer [3] | sweetness intensity relative to sucrose [4] |
| --- | --- | --- | --- | --- |
| COC(=O)[C@H](Cc1ccccc1)NC(=O)[C@@H](N)CC(=O)O [aspartame, N-L-α-aspartyl-L-phenylalanine methyl ester] (H-Asp-Phe-OMe) | makes the body retain water | linked with excessive water retention within the body | – | – |
| O=C1NS(=O)(=O)c2ccccc21 [Saccharin] | – | – | reported to be a risk in causing cancer in rats | – |
| OC[C@H]1O[C@H](O[C@]2(CCl)O[C@H](CCl)[C@@H](O)[C@@H]2O)[C@H](O)[C@@H](O)[C@H]1Cl [sucralose, 4,1′,6′-trichloro-4,1′,6′-trideoxygalactosucrose] | This effect is reduced | – | – | several hundred times that of sucrose |
